Measured values: patent US20220168392A1 (priority 2019, published 2022)
Square brackets hold non-standard residues; d marks the D form. * marks the point of attachment. 2Nal = N[C@@H](Cc1ccc2ccccc2c1)C(=O)O; Propionyl = CCC(=O)*; Sar = CNCC(=O)O

What was measured:
healthy men = test: Study NAP1001: single IV dose in healthy men (platelet counts, safety); assay type: in vivo, human; design: key to pharmacodynamics (PD) effect class of the dose (beneficial effects on survival): **: large pharmacodynamics (PD) effect; *: modest effect; conditions: for Humans Max Platelet Ratio: NAP 1001
Protocol: In the FIH, single dose, Phase 1 clinical study NAP1001, 40 healthy men were enrolled, and 30 subjects received a single IV dose of RWJ-800088 as a 5-mg/mL solution in saline (dose range 0.375 to 3 μg/kg); 10 subjects received placebo. […] Thirty-three (83%) of 40 subjects reported at least 1 treatment-emergent adverse event throughout the study. Similar proportions of subjects reported treatment-emergent adverse events following administration of placebo (9 [90%] of 10 subjects) and RWJ-800088 (24 [80%] of 30 subjects). […] Mean platelet counts increased with increasing RWJ-800088 dose compared with placebo from Day 6 onwards, peaking at Days 10 to 12 before gradually returning to baseline by Day 21 (FIG. 19).
(§1) The ratio of the maximum platelet counts to the baseline platelet counts following single escalating doses of RWJ-800088 to mice, rats, dogs, rhesus monkeys and human healthy volunteers is shown in Table 5. The dose required to achieve a 2-3.5-fold elevation in humans is ˜100-fold lower compared to mice, ˜1,000-fold lower compared to rats and >10,000-fold lower compared to canines and NHPs. […] The species differences in potency has been described for other TPO mimetics in the literature and is attributed to differences in receptor affinity (Erickson-Miller C L, et al. Discovery and characterization of a selective, nonpeptidyl thrombopoietin receptor agonist. Exp. Hematol. 2005; 33:85-93). […] It is discovered that the dose of RWJ-800088 that produces a survival benefit and protects against vascular and organ injury is the dose that produces a 2-4 fold elevation of platelets (Table 6).

healthy rhesus monkeys = test: Maximum platelet count to baseline in healthy rhesus monkeys, escalating doses; assay type: in vivo, rhesus monkey; design: key to pharmacodynamics (PD) effect class of the dose (beneficial effects on survival): **: large pharmacodynamics (PD) effect; *: modest effect
Protocol: A pilot PK/PD study was performed to evaluate the efficacy of RWJ-800088 in rhesus monkeys (Study No. 2016-2693—CiToxLAB North America). Rhesus monkeys (n=10/group, 5 male/5 female) were treated with vehicle or RWJ-800088 (a single dose of 30 mg/kg RWJ-800088) administered 24 hours post TBI gamma radiation (600 cGY). […] The ratio of the maximum platelet count to baseline following escalating doses of RWJ-800088 to healthy rhesus monkeys is as follows: 0.97±0.06× at 0.5 mg/kg, 1.08±0.15× at 2 mg/kg, 1.98±0.16× at 10 mg/kg, 2.9±0.03× at 20 mg/kg, and 3.83±0.11× at 40 mg/kg).
as §1

[1] = system: CD2F1 mice exposed to TBI (7 Gy); test: Hematological recovery (peripheral blood counts) after non-lethal 7 Gy TBI; assay type: in vivo, mouse
Protocol: Hematological recovery with RWJ-800088: To study the effects of prophylactic administration of RWJ-800088 on the recovery from hematopoietic injury following TBI, CD2F1 mice (n=10 per group) were treated with either a single dose of RWJ-800088 (0.3 mg/kg) or its vehicle (saline) 24 hours pre-TBI at a non-lethal dose of 7.0 Gy. This dose allows the animals to recover completely from the radiation-induced hematopoietic injury. In addition, a group of sham irradiated mice were given either the drug or saline. Blood collection was performed using a 23 G needle from the submandibular vein after anesthetizing the mice with isoflurane (Hospira Inc., Lake Forest, Ill.) at 2 hours and on days 1, 3, 7, 10, 14, 21, and 30 post-TBI. All mice were allowed to recover fully from anesthesia and monitored closely for any signs of a post-anesthesia reaction or bleeding at the collection site before returned to group housed cages. Approximately 20 μL of blood was collected in EDTA tubes and was continually rotated until CBC/differential analysis was completed using a HESKA Element HT™ 5 Analyzer system (HESKA Corporation, Loveland, Colo.). This CBC/differential analysis included white blood cells (WBC) counts, absolute neutrophil counts (Liem-Moolenaar, Clin Pharmacol Ther. 2008 October; 84(4):481-7), monocytes (MON), lymphocytes (LYM), red blood cells (RBC), hematocrits (HCT), and platelets (PLT) counts.

mice surviving TBI = test: Long-term blood cells, bone marrow and kidney staining in TBI survivors (Example 5); assay type: in vivo, mouse
Protocol: Methods: During the above Experiment 4, four studies were performed as follows:
Study A: A subset of the animals were sacrificed at 1, 6, and 12 months. Blood was collected and blood cells counted, and femurs were collected, bone marrow isolated and cultured to analyze for colony forming units;
Study B: A subset of the animals were sacrificed at 1 and 6 months. Sterna were collected from these animals, fixed, sectioned, stained with H&E (Hematoxylin and eosin), and megakaryocytes counted;
Study C: A subset of the animals were sacrificed at 1 and 6 months. Kidneys were collected from these animals, fixed, sectioned, stained with β-Catenin or E-cadherin: and
Study D: A subset of the animals were sacrificed at 1 and 6 months. Kidneys were collected from these animals, fixed, sectioned, stained with β-galactosidase, a marker of senescence.

[2] = day 7 post-TBI 7 Gy, 0.3 mg/kg 24 h pre-TBI
[3] = day 10 post-TBI 7 Gy, 0.3 mg/kg 24 h pre-TBI
[4] = day 14 post-TBI 7 Gy, 0.3 mg/kg 24 h pre-TBI
[5] = 1 and 6 months post TBI (FIG. 25)

Substance: methoxypolyethyleneglycol20000-propionyl-L-Isoleucyl-L-Glutamyl-Glycyl-L-Prolyl-L-Threonyl-L-Leucyl-L-Arginyl-L-Glutaminyl-L-2-Naphthylalanyl-L-Leucyl-L-Alanyl-L-Alanyl-L-Arginyl-Sarcosyl-Ne-(methoxypolyethyleneglycol20000-propionyl-L-Isoleucyl-L-Glutamyl-Glycyl-L-Prolyl-L-Threonyl-L-Leucyl-L-Arginyl-L-Glutaminyl-L-2-Naphthylalanyl-L-Leucyl-L-Alanyl-L-Alanyl-L-Arginyl-Sarcosyl-)-Lysinamide ({mPEG 20 kDa-Propionyl}-IEGPTLRQ[2Nal]LAAR[Sar]K-NH2; also: dimer: second identical mPEG-propionyl chain on Lys Nε of C-terminal lysinamide) [RWJ-800088]
- subjects reporting treatment-emergent adverse events (healthy men; 24 of 30 subjects, single IV dose 0.375 to 3 μg/kg): 80%
- Average of the Maximum Platelet Elevation/Baseline Platelet Counts (healthy men; Human, dose 3 μg/kg): 3.3
- Dose for 2.0-4x Platelet Elevation in Healthy Subjects (healthy men; Humans): ≥0.00225 mg/kg
- pharmacodynamics (PD) effect class of the dose (beneficial effects on survival) (healthy men; Humans, dose 2.25 μg/kg): **
- pharmacodynamics (PD) effect class of the dose (beneficial effects on survival) (healthy men; Humans, dose 3 μg/kg): **
- Humans Max Platelet Ratio (healthy men; dose 0.375 μg/kg): 1.4 ± 0.3
- Humans Max Platelet Ratio (healthy men; dose 0.75 μg/kg): 1.8 ± 0.4
- Humans Max Platelet Ratio (healthy men; dose 1.5 μg/kg): 1.9 ± 0.7
- Humans Max Platelet Ratio (healthy men; dose 2.25 μg/kg): 2.1 ± 0.8
- Humans Max Platelet Ratio (healthy men; dose 3 μg/kg): 3.1 ± 1.1
- enhancement of platelets over background (healthy men; humans, 3 μg/kg (FIG. 19)): 3.5 fold
- incidence of adverse events, dose relation (healthy men; single IV dose 0.375 to 3 μg/kg): not dose related
- tolerability (healthy men; single IV doses up to and including 3 μg/kg, healthy men): well tolerated
- ratio of the maximum platelet count to baseline (healthy rhesus monkeys; 0.5 mg/kg): 0.97±0.06 ×
- ratio of the maximum platelet count to baseline (healthy rhesus monkeys; 2 mg/kg): 1.08±0.15 ×
- ratio of the maximum platelet count to baseline (healthy rhesus monkeys; 10 mg/kg): 1.98±0.16 ×
- ratio of the maximum platelet count to baseline (healthy rhesus monkeys; 20 mg/kg): 2.9±0.03 ×
- ratio of the maximum platelet count to baseline (healthy rhesus monkeys; 40 mg/kg): 3.83±0.11 ×
- NHP Max Platelet Ratio (healthy rhesus monkeys; CiToxLAB North America Study No. 2016-2693, dose 30000 μg/kg): 3.25
- Average of the Maximum Platelet Elevation/Baseline Platelet Counts (healthy rhesus monkeys; Monkey, dose 40000 μg/kg): 3.83
- pharmacodynamics (PD) effect class of the dose (beneficial effects on survival) (healthy rhesus monkeys; NHP, dose 30000 μg/kg): *
- Dose for 2.0-4x Platelet Elevation in Healthy Subjects (healthy rhesus monkeys; Rhesus): ≥30 mg/kg
- NHP Max Platelet Ratio (healthy rhesus monkeys; TOX9795/B201016-K013, dose 500 μg/kg): 0.9 ± 0.1
- NHP Max Platelet Ratio (healthy rhesus monkeys; TOX9795/B201016-K013, dose 2000 μg/kg): 1.1 ± 0.1
- NHP Max Platelet Ratio (healthy rhesus monkeys; TOX9795/B201016-K013, dose 10000 μg/kg): 2.9 ± 0.0
- NHP Max Platelet Ratio (healthy rhesus monkeys; TOX9795/B201016-K013, dose 40000 μg/kg): 3.8 ± 0.1
- recovery from cytopenia of all blood cell counts vs vehicle control ([1]; 7 Gy, 0.3 mg/kg 24 h pre-TBI): significant
- Neutrophil (NEU) counts [1, 2]: 0.31±0.026 cells/μL
- white blood cell (WBC) counts [1, 2]: 0.5±0.037 cells/μL
- lymphocyte (LYM) vs vehicle-treated group ([1]; day 10 post-TBI 7 Gy): significant (p<0.05) increases
- platelet (PLT) count [1, 3]: 1565×10^3±148×10^3 cells/μL
- white blood cell (WBC) counts [1, 3]: 1.39±0.1756 cells/μL
- RBC counts of irradiated vehicle-treated group compared with irradiated RWJ-800088 treated group ([1]; day 14 post-TBI 7 Gy): same effect was also observed
- Neutrophil (NEU) counts [1, 4]: 1.54±0.21 cells/μL
- white blood cell (WBC) counts [1, 4]: 2.43±0.32 cells/μL
- platelet (PLT) count ([1]; day 14 post-TBI 7 Gy, 0.3 mg/kg 24 h pre-TBI, irradiated RWJ-800088 treated group): 1070×10^3±156×10^3 cells/μL
- % HCT of irradiated vehicle-treated group compared with irradiated RWJ-800088 treated group ([1]; day 14 post-TBI 7 Gy, p<0.001): significantly lower
- monocyte (MON) counts vs irradiated vehicle-treated group ([1]; days 7, 10 and 14 post-TBI 7 Gy, p<0.001): markedly higher
- PLT in non-irradiated groups vs saline ([1]; non-irradiated, days 7 and 10 post-TBI (days 8 and 11 after administration), 0.3 mg/kg): significant (p<0.05) increase in PLT
- E-cadherin expression in kidney vs vehicle (mice surviving TBI; [5]): higher
- β-Catenin expression in kidney (mice surviving TBI; [5]): decreases β-Catenin expression
- β-galactosidase staining in kidney (marker of senescence) (mice surviving TBI; 1 and 6 months post TBI (FIG. 26, 27)): protects from cellular senescence
- megakaryocytes in sterna vs vehicle (saline) (mice surviving TBI; 1 and 6 months post irradiation): significantly higher numbers of megakaryocytes
- blood cell types (white blood cells, lymphocytes, neutrophils, platelets, red blood cells) vs vehicle (mice surviving TBI; 6 months and 12 months post TBI): increased in number
- colony forming units in isolated bone marrow vs vehicle (mice surviving TBI; 6 months post TBI (FIG. 23)): more colony forming units
